Measured values reported in ChEMBL document CHEMBL3860069, “A new Suzuki synthesis of triphenylethylenes that inhibit aromatase and bind to estrogen receptors α and β” (Bioorg Med Chem, 2016).

Key:
[1] = biological target: T1, CYP19 (aromatase) (Homo sapiens, UniProt P11511); assay: in vitro; details: recombinant human microsomal CYP19, probe MFC
T1 sequence (P11511 whole entry): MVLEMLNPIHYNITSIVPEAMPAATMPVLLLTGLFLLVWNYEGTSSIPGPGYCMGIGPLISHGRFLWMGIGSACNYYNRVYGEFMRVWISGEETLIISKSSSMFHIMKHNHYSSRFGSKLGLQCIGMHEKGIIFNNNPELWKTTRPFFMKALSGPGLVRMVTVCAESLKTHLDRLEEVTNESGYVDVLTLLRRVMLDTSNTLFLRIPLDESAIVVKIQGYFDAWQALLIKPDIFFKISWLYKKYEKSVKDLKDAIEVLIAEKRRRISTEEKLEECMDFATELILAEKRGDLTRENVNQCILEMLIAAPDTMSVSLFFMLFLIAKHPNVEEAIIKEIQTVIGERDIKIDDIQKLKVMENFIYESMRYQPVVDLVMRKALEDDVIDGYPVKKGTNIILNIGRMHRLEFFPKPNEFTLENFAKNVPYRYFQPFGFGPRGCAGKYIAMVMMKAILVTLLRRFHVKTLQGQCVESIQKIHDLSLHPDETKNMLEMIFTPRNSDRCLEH
Description: Inhibition of recombinant human microsomal CYP19 at 50 uM using MFC as substrate measured after 30 mins by fluorometric analysis relative to control

[2] = biological target: T2, Estrogen receptor beta (Homo sapiens, UniProt Q92731); assay: Displacement of fluorescent ES2 from recombinant human ERbeta at 100 uM after 2 hrs in absence of light by fluorometric analysis relative to control
[3] = biological target: T3, Estrogen receptor (Homo sapiens) (UniProt P03372); assay: Displacement of fluorescent ES2 from recombinant human ERalpha at 100 uM after 2 hrs in absence of light by fluorometric analysis relative to control
T3 sequence (whole entry): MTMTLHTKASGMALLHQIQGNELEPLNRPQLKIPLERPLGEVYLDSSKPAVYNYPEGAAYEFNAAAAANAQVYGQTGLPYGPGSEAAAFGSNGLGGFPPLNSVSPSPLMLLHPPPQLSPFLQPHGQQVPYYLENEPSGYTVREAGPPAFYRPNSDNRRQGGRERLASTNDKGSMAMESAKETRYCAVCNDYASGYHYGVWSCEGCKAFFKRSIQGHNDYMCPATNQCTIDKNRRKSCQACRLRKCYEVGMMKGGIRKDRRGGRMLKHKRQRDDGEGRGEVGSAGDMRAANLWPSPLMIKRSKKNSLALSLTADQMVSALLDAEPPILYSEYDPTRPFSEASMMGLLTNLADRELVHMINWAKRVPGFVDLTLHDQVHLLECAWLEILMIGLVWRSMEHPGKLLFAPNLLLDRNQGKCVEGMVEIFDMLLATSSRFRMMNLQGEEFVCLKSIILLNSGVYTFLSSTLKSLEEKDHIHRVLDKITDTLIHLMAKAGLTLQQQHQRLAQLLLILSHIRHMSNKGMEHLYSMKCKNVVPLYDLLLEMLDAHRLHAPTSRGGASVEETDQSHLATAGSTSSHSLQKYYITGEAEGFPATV

[4] = biological target: T4, Aromatase (Homo sapiens, UniProt P11511)
T4 sequence (P11511 whole entry): T1 sequence (P11511 whole entry)
Description: Inhibition of recombinant human microsomal CYP19 using MFC as substrate measured after 30 mins by fluorometric analysis

[5] = biological target: T5, Estrogen receptor (Homo sapiens, UniProt P03372)
T5 sequence (P03372 whole entry): T3 sequence (whole entry)
Description: Displacement of fluorescent ES2 from recombinant human ERalpha after 2 hrs in absence of light by fluorometric analysis

[6] = biological target: T2, Estrogen receptor beta
Description: Displacement of fluorescent ES2 from recombinant human ERbeta after 2 hrs in absence of light by fluorometric analysis

T2 sequence (Q92731 whole entry): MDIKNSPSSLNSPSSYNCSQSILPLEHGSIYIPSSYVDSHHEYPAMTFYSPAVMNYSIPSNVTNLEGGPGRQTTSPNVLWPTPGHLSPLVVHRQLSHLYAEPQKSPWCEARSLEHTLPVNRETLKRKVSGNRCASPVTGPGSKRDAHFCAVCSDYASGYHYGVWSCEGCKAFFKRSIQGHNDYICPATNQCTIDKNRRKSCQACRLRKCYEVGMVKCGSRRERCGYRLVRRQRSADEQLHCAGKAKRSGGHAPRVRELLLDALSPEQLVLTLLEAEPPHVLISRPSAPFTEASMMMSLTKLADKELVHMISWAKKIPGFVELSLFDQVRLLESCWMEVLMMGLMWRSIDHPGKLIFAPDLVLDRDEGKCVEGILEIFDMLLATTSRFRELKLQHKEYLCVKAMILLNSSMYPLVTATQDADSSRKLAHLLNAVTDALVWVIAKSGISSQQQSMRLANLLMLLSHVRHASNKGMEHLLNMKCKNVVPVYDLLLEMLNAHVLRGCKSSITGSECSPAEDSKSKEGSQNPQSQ

CC(=C(c1ccc(N)cc1)c1ccc(N)cc1)c1ccc([N+](=O)[O-])cc1
inhibition at 0.5 h, 50 µM [1]: > 90%

CC/C(=C(/c1ccc(O)cc1)c1ccc(OCC(N)=O)cc1)c1ccccc1
inhibition [2]: 71% | inhibition [3]: 57% | IC50 [4]: 9260 nM | inhibition at 0.5 h, 50 µM [1]: > 90%

CCC(=C(c1ccc(N)cc1)c1ccc(N)cc1)c1ccc([N+](=O)[O-])cc1
inhibition at 0.5 h, 50 µM [1]: > 90%

CCC(=C(c1ccc(O)cc1)c1ccc(OCCN)cc1)c1ccccc1
inhibition at 0.5 h, 50 µM [1]: > 90%

CCC(=C(c1ccc(O)cc1)c1ccc(OCC(N)=O)cc1)c1ccc([N+](=O)[O-])cc1
inhibition [2]: 0% | inhibition [3]: 0% | inhibition at 0.5 h, 50 µM [1]: 76%

CC(=C(c1ccc(O)cc1)c1ccc(OCC(N)=O)cc1)c1ccc([N+](=O)[O-])cc1
inhibition [2]: 0% | inhibition [3]: 0% | IC50 [4]: 9720 nM | inhibition at 0.5 h, 50 µM [1]: > 90%

CC/C(=C(/c1ccc(O)cc1)c1ccc(OCCN)cc1)c1ccccc1
inhibition at 0.5 h, 50 µM [1]: > 90%

CC/C(=C(\c1ccc(O)cc1)c1ccc(OCCN)cc1)c1ccccc1
inhibition at 0.5 h, 50 µM [1]: > 90%

CCC(=C(c1ccc(O)cc1)c1ccc(O)cc1)c1ccc([N+](=O)[O-])cc1
inhibition [2]: 66% | inhibition [3]: 40% | inhibition at 0.5 h, 50 µM [1]: 78%

CC(=C(c1ccc(N)cc1)c1ccc(NCC(N)=O)cc1)c1ccc([N+](=O)[O-])cc1
EC50 [5]: 164 nM | IC50 [4]: 645 nM | EC50 [6]: 218 nM | inhibition at 0.5 h, 50 µM [1]: > 90%

CCC(=C(c1ccc(N)cc1)c1ccc(NCC(N)=O)cc1)c1ccc([N+](=O)[O-])cc1
EC50 [5]: 451 nM | IC50 [4]: 287 nM | EC50 [6]: 346 nM | inhibition at 0.5 h, 50 µM [1]: > 90%

CCC(=C(c1ccc(N)cc1)c1ccc(N)cc1)c1ccc(N)cc1
inhibition [2]: 76% | inhibition [3]: 25% | inhibition at 0.5 h, 50 µM [1]: > 90%

CC(=C(c1ccc(O)cc1)c1ccc(O)cc1)c1ccc(N)cc1
inhibition at 0.5 h, 50 µM [1]: > 90%

CC(=C(c1ccc(O)cc1)c1ccc(O)cc1)c1ccc([N+](=O)[O-])cc1
inhibition [2]: 55% | inhibition [3]: 19% | inhibition at 0.5 h, 50 µM [1]: 75%

CCC(=C(c1ccc(O)cc1)c1ccc(O)cc1)c1ccc(N)cc1
inhibition at 0.5 h, 50 µM [1]: > 90%

CCC(=C(c1ccc(O)cc1)c1ccc(O)cc1)c1ccccc1
inhibition at 0.5 h, 50 µM [1]: > 90%

CC(=C(c1ccc(N)cc1)c1ccc(N)cc1)c1ccc(N)cc1
inhibition [2]: 77% | inhibition [3]: 31% | inhibition at 0.5 h, 50 µM [1]: > 90%
